Measurements as given in patent US20220041957A1, “GLUCAMIDE-BASED SURFACTANTS” (Clariant International Ltd., priority 2018, published 2022).

Key:
Foam (collapse) test = type: physicochemical; conditions: 20 mL of 1 wt. % solution, 20 shakes; for Foam Height, 2 min: after 2 min; for Foam Height, 3 min: after 3 min; for Foam Height, 5 min: after 5 min; for Foam Height, Initial: directly after shaking
Experimental: 20 mL of 1 wt. % solution of each substance were placed into a graduated 100 mL measurement cylinder, which was sealed with a stopper. Foam was generated by 20 shakes. The foam height was determined as mL foam above the aqueous layer directly after shaking, after 2, 3 and 5 min.

[1] = Wetting test on cotton swatches; type: physicochemical; conditions: 0.1 wt. % surfactant solution in water; for Wetting Performance: rating in words; for Wetting time: time until swatch sinks to bottom
Experimental: Cotton swatches (ISO 8022, obtained from wfk-Testgewebe GmbH) were placed in 600 mL beaker, filled with the corresponding 0.1 wt. % surfactant solution in water. The time between placing the swatches into the solution and sinking to the bottom was measured.

| SMILES | Foam Height, 2 min (Foam (collapse) test) [mL] | Foam Height, 3 min (Foam (collapse) test) [mL] | Foam Height, 5 min (Foam (collapse) test) [mL] | Foam Height, Initial (Foam (collapse) test) [mL] | Wetting Performance [1] | Wetting time [1] [s] |
| --- | --- | --- | --- | --- | --- | --- |
| CN(C[C@H](O)[C@@H](O)[C@H](O)[C@H](O)CO)C(=O)CCCCCCCCCCCCCCCO [Example 4] | 67 | 50 | 33 | 89 | poor | >300 |
| CCCCCCCCCCCC(O)CC(=O)N(C)C[C@H](O)[C@@H](O)[C@H](O)[C@H](O)CO (stereo partly drawn) [Example 2] | 60 | 33 | 19 | 80 | good | 60 |
